The values below come from paper doi:10.1101/2021.10.07.463234v2 (biorxiv, 2021).

One may read the %inhibition as the relative decrease from the control value, in per cent. A higher %inhibition goes with a strong effect. The inhibition is the relative decrease from the control value, in per cent.

Where a name gives a salt, the structure may show the parent alone.

In the first test the target is SARS-CoV-2 Mac1 (Severe acute respiratory syndrome coronavirus 2, UniProt P0DTD1). Nature of the test: biochemical. The note with it: 100 µM; inhibitor.
As for `C[C@@H]1C[C@H]2[C@@H]3CCC4=CC(=O)C=C[C@]4(C)[C@@]3(F)[C@@H](O)C[C@]2(C)[C@@]1(O)C(=O)CO` [Dexamethasone (DHAP)], the “%inhibition” value is given as 0%. The same measure, in the same setting: for `Nc1c2c(nc3ccccc13)CCCC2` [Tacrine HCl] the value was 0.07061%; for `CC(=O)O[C@@]12CO[C@@H]1C[C@H](O)[C@@]1(C)C(=O)[C@H](O)C3=C(C)[C@@H](OC(=O)[C@H](O)[C@@H](NC(=O)OC(C)(C)C)c4ccccc4)C[C@@](O)([C@@H](OC(=O)c4ccccc4)[C@H]21)C3(C)C` [Docetaxel Trihydrate], 6.628%. Same read-out and setting: to `CCOC(=O)Nc1ccc(NCc2ccc(F)cc2)cc1N` [Retigabine] belongs 0%; to `Nc1c(Br)cc(Br)cc1CN[C@H]1CC[C@H](O)CC1` [Ambroxol HCl], 9.799%; to `C/C(=C\C(=O)OCCCCCCCCC(=O)O)C[C@@H]1OC[C@H](C[C@@H]2O[C@H]2[C@@H](C)[C@H](C)O)[C@@H](O)[C@H]1O` [Mupirocin], 0%. For the compound `CCCC(CCC)C(=O)O` [Divalproex Sodium], the “%inhibition” value was 5.124%. In the case of `Nc1c(Br)cc(Br)cc1CN[C@H]1CC[C@H](O)CC1` [Ambroxol], the “%inhibition” value stood at 0%. Still for that read-out and setting: to `CC(C(=O)O)c1cccc(Oc2ccccc2)c1` (stereo not shown) [Fenoprofen Calcium] belongs 9.442%. Regarding `C[C@H]1COc2c(N3CCN(C)CC3)c(F)cc3c(=O)c(C(=O)O)cn1c23` [Levofloxacin], the “%inhibition” value was found to be 22.21%. Still for that read-out and setting: for `Cc1cccc([C@H](C)c2c[nH]cn2)c1C` [Dexmedetomidine HCl] the value was 0%.

Staying with this test, now noted: read-out: %inhibition.
Turning to `CCc1nc(N)nc(N)c1-c1ccc(Cl)cc1` [Pyrimethamine], the inhibition at 100 µM turned out to be 3.53%. In the case of `O=C(O)c1cccnc1Nc1cccc(C(F)(F)F)c1` [Niflumic acid], the inhibition at 100 µM came out at 11%. Still for that read-out and setting: to `CC(=O)O[C@H]1Cc2ccccc2N(C(N)=O)c2ccccc21` [Eslicarbazepine Acetate] belongs 0%; to `CCOc1nc2cccc(C(=O)O)c2n1Cc1ccc(-c2ccccc2-c2nnn[nH]2)cc1` [Candesartan], 0%; to `CC1(C)C[C@@H]1C(=O)N/C(=C\CCCCSC[C@H](N)C(=O)O)C(=O)O` [Cilastatin], 0%. On the same count and under the same terms, to `C[C@@H](O[C@H]1OCCN(Cc2nn(P(=O)(O)O)c(=O)[nH]2)[C@H]1c1ccc(F)cc1)c1cc(C(F)(F)F)cc(C(F)(F)F)c1` [Fosaprepitant dimeglumine salt] belongs 3%; to `CCOC(=O)CC(=O)N1CCSC1COc1ccccc1OC` (stereo not shown) [Moguisteine], 13%. Same read-out and setting: for `CCCCC[C@](C)(O)/C=C/[C@@H]1[C@@H](C/C=C\CCCC(=O)O)[C@@H](O)C[C@H]1O` [Carboprost] the value was 17.6%. For the compound `CC(=O)O[C@]1(C(C)=O)CC[C@H]2[C@@H]3C=C(C)C4=CC(=O)CC[C@]4(C)[C@H]3CC[C@@]21C` [Megestrol Acetate], the inhibition at 100 µM is 23.5%. Still for that read-out and setting: to `CCC(C)(C)c1ccc(CC(C)CN2C[C@@H](C)O[C@@H](C)C2)cc1` (stereo partly shown) [Amorolfine HCl] belongs 6.98%. Consider `O=C(OCc1ccccc1)c1ccccc1` [Benzyl benzoate], for which the inhibition at 100 µM came out at 0%. The same measure, in the same setting: for `CCCCCCCCc1ccc(CCC(N)(CO)CO)cc1` [Fingolimod (FTY720) HCl] the value was 33%. Still for that read-out and setting: for `CS(=O)(=O)c1ccc(C2=C(c3ccccc3)C(=O)OC2)cc1` [Rofecoxib] the value was 12.8%; for `CCC[C@@H]1C[C@@H](C(=O)N[C@@H]([C@H]2O[C@H](SC)[C@H](OP(=O)(O)O)[C@@H](O)[C@H]2O)[C@H](C)Cl)N(C)C1` [Clindamycin Phosphate], 0%; for `O=C(OCC(O)CO)c1ccccc1Nc1ccnc2cc(Cl)ccc12` (stereo not shown) [Glafenine HCl], 16.2%.

With `CN(C)CC/C=C1/c2ccccc2COc2ccc(CC(=O)O)cc21` [Olopatadine HCl], the inhibition at 100 µM was found to be 2.14%.

In the case of `CC(=O)O[C@H]1C[C@@]2(C)[C@@H](C[C@@H](O)[C@H]3[C@@]4(C)CC[C@@H](O)[C@@H](C)[C@@H]4CC[C@@]32C)/C1=C(\CCC=C(C)C)C(=O)O` [Fusidate Sodium], the inhibition at 100 µM is 3.17%. In the case of `Cn1c(COP(=O)(NCCBr)NCCBr)cnc1[N+](=O)[O-]` [Evofosfamide (TH-302)], the inhibition at 100 µM worked out at 12.7%. The same measure, in the same setting: for `CCCCN1CCCCC1C(=O)Nc1c(C)cccc1C` (stereo not shown) [Bupivacaine HCl] the value was 0%; for `CC(=O)Oc1cc(C(F)(F)F)ccc1C(=O)O` [Triflusal], 5.82%; for `Cn1c(=O)cc(N2CCC[C@@H](N)C2)n(Cc2ccccc2C#N)c1=O` [Alogliptin], 12.8%. On the same count and under the same terms, for `CCCC1O[C@@H]2C[C@H]3[C@@H]4CCC5=CC(=O)C=C[C@]5(C)[C@H]4[C@@H](O)C[C@]3(C)[C@]2(C(=O)CO)O1` (stereo partly shown) [Budesonide] the value was 12.3%; for `CC(C)[N+](C)(CCOC(=O)C1c2ccccc2Oc2ccccc21)C(C)C` [Propantheline bromide], 0%. For `CC[C@@H](C(N)=O)N1CCCC1=O` [Levetiracetam], the inhibition at 100 µM turned out to be 0%. On the same count and under the same terms, for `OCC(O)CN1CCN(c2ccccc2)CC1` (stereo not shown) [Dropropizine] the value was 20.7%; for `C1=N/C2=N/c3ccc(OCCN4CCCC4)c(c3)COC/C=C/COCc3cccc(c3)C(=C1)N2` [Pacritinib (SB1518)], 0%; for `CC(C)(CO)[C@@H](O)C(=O)NCCC(=O)O` [Calcium D-Panthotenate], 14.2%.

Turning to `COc1ccc2c(c1)[C@]13CCCC[C@@H]1[C@H](C2)N(C)CC3` [Dextromethorphan hydrobromide hydrate], the inhibition at 100 µM was found to be 8.58%.

For the compound `CCCOc1ccc(C(=O)OCCN(CC)CC)cc1N` [Proparacaine HCl], the inhibition at 100 µM was 13%. Still for that read-out and setting: to `C[C@H](CCC(=O)O)[C@H]1CC[C@H]2[C@@H]3[C@H](O)C[C@@H]4C[C@H](O)CC[C@]4(C)[C@H]3C[C@H](O)[C@]12C` [Cholic acid] belongs 0%; to `CCOC(=O)c1cncn1[C@H](C)c1ccccc1` [Etomidate], 8.82%; to `OC[C@@H](O)CN1CCN(c2ccccc2)CC1` [Levodropropizine], 4.43%. Same read-out and setting: for `Nc1nc(F)nc2c1ncn2[C@@H]1O[C@H](CO)[C@@H](O)[C@@H]1O` [Fludarabine] the value was 12.7%; for `CNCC[C@@H](Oc1ccccc1C)c1ccccc1` [Atomoxetine HCl], 0%; for `N#Cc1ccc2[nH]cc(CCCCN3CCN(c4ccc5oc(C(N)=O)cc5c4)CC3)c2c1` [Vilazodone HCl], 9.5%. Regarding `O=C(O)CC(O)(CC(=O)O)C(=O)O` [Citric acid trilithium salt tetrahydrate], the inhibition at 100 µM was determined as 0%. Take `COc1ccc(/C=C/C(=O)Nc2ccccc2C(=O)O)cc1OC` [Tranilast]: the inhibition at 100 µM was determined as 0%. On the same count and under the same terms, for `NC[C@@H]1O[C@H](O[C@H]2[C@@H](O)[C@H](O[C@@H]3[C@@H](O)[C@H](N)C[C@H](N)[C@H]3O[C@H]3O[C@H](CO)[C@@H](O)[C@H](O)[C@H]3N)O[C@@H]2CO)[C@H](N)[C@@H](O)[C@@H]1O` [Paromomycin Sulfate] the value was 0.814%; for `CC(=O)O[C@H]1CC[C@@]2(C)C(=CC[C@@H]3[C@@H]2CC[C@]2(C)C(=O)CC[C@@H]32)C1` [Dehydroepiandrosterone acetate], 15.8%; for `CC(C)(C)NC[C@H](O)COc1nsnc1N1CCOCC1` [Timolol Maleate], 11.9%. On the same count and under the same terms, to `C[C@@H](O)[C@H]1C(=O)N2C(C(=O)O)=C(S[C@@H]3CN[C@H](C(=O)Nc4cccc(C(=O)O)c4)C3)[C@H](C)[C@H]12` [Ertapenem sodium] belongs 2.44%.

Turning to `O=C(O)c1ccc2c(c1)nc(Nc1cccc(Cl)c1)c1ccncc12` [Silmitasertib (CX-4945)], the inhibition at 100 µM was determined as 0%.

Regarding `CCC1(c2c[nH]cn2)Cc2ccccc2C1` [Atipamezole hydrochloride], the inhibition at 100 µM was 0%. `CCCCCOc1ccccc1/C(=C\SC)n1ccnc1` [Neticonazole Hydrochloride]: the inhibition at 100 µM was 0%.

Take `O[C@@H]1CO[C@H]2[C@@H]1OC[C@@H]2O` [Isosorbide]: the inhibition at 100 µM stood at 17.9%. Same read-out and setting: to `Nc1nc(=O)[nH]cc1F` [Flucytosine] belongs 0%. On the same count and under the same terms, for `S=c1nc[nH]c2nc[nH]c12` [6-Mercaptopurine (6-MP) Monohydrate] the value was 4.11%. The same measure, in the same setting: for `Cc1ccccc1N1C(=O)c2cc(S(N)(=O)=O)c(Cl)cc2NC1C` (stereo not shown) [Metolazone] the value was 0%; for `Cc1c(F)cc(C(=O)NC2CC2)cc1-c1ccc(C(=O)NCC(C)(C)C)cn1` [Losmapimod (GW856553X)], 0%; for `Cc1ccc2c(c1)[C@]13CCCC[C@@H]1[C@H](C2)N(C)CC3` [Dimemorfan phosphate], 0%. Turning to `Cc1onc(-c2c(F)cccc2Cl)c1C(=O)N[C@@H]1C(=O)N2[C@@H]1SC(C)(C)[C@@H]2C(=O)O` [Flucloxacillin sodium], the inhibition at 100 µM was 1.41%. Same read-out and setting: to `O=S(=O)(O)CCS` [Mesna] belongs 24.6%; to `CC[C@H](NC(=O)[C@H](C)NC)C(=O)N1C[C@@H](O)C[C@H]1Cc1c(-c2[nH]c3cc(F)ccc3c2C[C@@H]2C[C@H](O)CN2C(=O)[C@H](CC)NC(=O)[C@H](C)NC)[nH]c2cc(F)ccc12` [Birinapant], 3.17%; to `COC(=O)N[C@H](C(=O)N1CCC[C@H]1c1ncc(-c2ccc(-c3ccc(-c4cnc([C@@H]5CCCN5C(=O)[C@@H](NC(=O)OC)C(C)C)[nH]4)cc3)cc2)[nH]1)C(C)C` [Daclatasvir (BMS-790052)], 1.65%.

For `CC(C)(Oc1ccc(Cl)cc1)C(=O)OCCOC(=O)c1cccnc1` [Etofibrate], the inhibition at 100 µM is 4.59%. As to `CCC1(c2ccc(N)cc2)CCC(=O)NC1=O` (stereo not shown) [Aminoglutethimide], the inhibition at 100 µM is 17.3%.
